Test results published in ChEMBL document CHEMBL4834420, “Projected Dose Optimization of Amino- and Hydroxypyrrolidine Purine PI3Kδ Immunomodulators” (J Med Chem, 2021).
Values belong to the compound of their own block, whether it stands above or below them.

What was measured:
[1] = biological target: T1, Phosphatidylinositol 4,5-bisphosphate 3-kinase catalytic subunit delta isoform (Homo sapiens, UniProt O00329); assay: Inhibition of PI3Kdelta in human Ramos cells assessed as reduction in anti-IgM-antibody-induced phosphorylation of AKT at Ser473 residue preincubated for 20 mins followed by anti-IgM antibody stimulation and measured after 30 mins by alphascreen assay; format: cell-based
T1 sequence (O00329 whole entry): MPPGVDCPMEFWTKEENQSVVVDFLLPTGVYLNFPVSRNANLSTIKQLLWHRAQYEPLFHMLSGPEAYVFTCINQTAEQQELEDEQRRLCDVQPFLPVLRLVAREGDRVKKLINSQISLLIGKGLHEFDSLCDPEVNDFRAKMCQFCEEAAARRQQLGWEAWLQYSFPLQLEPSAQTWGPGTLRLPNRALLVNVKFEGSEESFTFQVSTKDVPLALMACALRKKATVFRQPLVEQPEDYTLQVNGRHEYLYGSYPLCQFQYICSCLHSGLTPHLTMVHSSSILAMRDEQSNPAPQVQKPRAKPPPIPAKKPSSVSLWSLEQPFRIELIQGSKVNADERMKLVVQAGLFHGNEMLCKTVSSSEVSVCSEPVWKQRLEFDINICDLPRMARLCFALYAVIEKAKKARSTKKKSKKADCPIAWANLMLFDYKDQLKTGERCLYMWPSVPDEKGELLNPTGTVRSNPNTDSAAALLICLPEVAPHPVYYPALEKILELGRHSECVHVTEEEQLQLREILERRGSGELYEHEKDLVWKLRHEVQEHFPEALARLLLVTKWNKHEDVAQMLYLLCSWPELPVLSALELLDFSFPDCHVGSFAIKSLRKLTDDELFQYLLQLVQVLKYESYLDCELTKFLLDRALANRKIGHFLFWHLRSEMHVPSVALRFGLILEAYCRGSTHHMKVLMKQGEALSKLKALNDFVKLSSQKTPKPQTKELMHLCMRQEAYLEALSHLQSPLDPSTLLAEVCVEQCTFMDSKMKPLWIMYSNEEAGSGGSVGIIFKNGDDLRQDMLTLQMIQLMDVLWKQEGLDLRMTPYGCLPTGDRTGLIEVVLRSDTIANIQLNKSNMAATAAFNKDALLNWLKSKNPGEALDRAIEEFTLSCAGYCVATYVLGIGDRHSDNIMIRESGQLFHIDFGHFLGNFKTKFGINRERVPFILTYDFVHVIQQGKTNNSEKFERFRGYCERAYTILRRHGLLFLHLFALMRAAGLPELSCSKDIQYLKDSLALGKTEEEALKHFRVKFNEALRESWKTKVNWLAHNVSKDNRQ

[2] = biological target: PI3-kinase p110-delta/p85-alpha (Homo sapiens, UniProt O00329); assay: Inhibition of N-terminal His6-tagged recombinant full length human p110delta/untagged recombinant full length human p85alpha expressed in baculovirus infected Sf21 insect cells using PIP2 as substrate preincubated for 15 mins followed by substrate addition and measured after 1 hr by HTRF assay
[3] = Inhibition of adenosine transporter in human HeLa cells assessed as reduction in [3H]adenosine uptake preincubated for 30 mins followed by [3H]adenosine addition and measured after 60 mins; format: cell-based
[4] = Half-life in Wistar Han rat; format: ADME; details: in vivo
[5] = Intrinsic clearance in Beagle dog at 0.25 mg/kg, iv or 0.5 mg/kg, po; format: ADME, organism-based, Canis lupus familiaris; details: in vivo
[6] = Oral bioavailability in Beagle dog; format: ADME, organism-based, Canis lupus familiaris; details: in vivo
[7] = Intrinsic clearance in Wistar Han rat at 0.5 mg/kg, iv or 1 mg/kg, po; format: ADME, organism-based; details: in vivo
[8] = Volume of distribution in Beagle dog; format: ADME, Canis lupus familiaris; details: in vivo
[9] = Lipophilicity, log D of the compound by HPLC analysis; format: physicochemical
[10] = biological target: T1, Phosphatidylinositol 4,5-bisphosphate 3-kinase catalytic subunit delta isoform; assay: Inhibition of PI3Kdelta in human whole blood assessed as reduction in anti-CD79b antibody-induced CD69 expression preincubated for 60 mins followed by anti-CD79b antibody stimulation and measured after 3 hrs by FACS analysis; format: tissue-based
[11] = Volume of distribution in Wistar Han rat; format: ADME; details: in vivo
[12] = Unbound volume of distribution in Beagle dog; format: ADME, Canis lupus familiaris; details: in vivo
[13] = Apparent permeability in pig LLC-PK1 cells; format: ADME, cell-based, Sus scrofa
[14] = Half-life in Beagle dog; format: ADME, Canis lupus familiaris; details: in vivo
[15] = Plasma clearance in Wistar Han rat at 0.5 mg/kg, iv or 1 mg/kg, po; format: ADME, organism-based
[16] = Plasma clearance in Beagle dog at 0.25 mg/kg, iv or 0.5 mg/kg, po; format: ADME, organism-based, Canis lupus familiaris
[17] = Oral bioavailability in Wistar Han rat; format: ADME, organism-based; details: in vivo
[18] = Unbound volume of distribution in Wistar Han rat; format: ADME; details: in vivo

Chain of PI3-kinase p110-delta/p85-alpha (P27986 whole entry, one chain of several): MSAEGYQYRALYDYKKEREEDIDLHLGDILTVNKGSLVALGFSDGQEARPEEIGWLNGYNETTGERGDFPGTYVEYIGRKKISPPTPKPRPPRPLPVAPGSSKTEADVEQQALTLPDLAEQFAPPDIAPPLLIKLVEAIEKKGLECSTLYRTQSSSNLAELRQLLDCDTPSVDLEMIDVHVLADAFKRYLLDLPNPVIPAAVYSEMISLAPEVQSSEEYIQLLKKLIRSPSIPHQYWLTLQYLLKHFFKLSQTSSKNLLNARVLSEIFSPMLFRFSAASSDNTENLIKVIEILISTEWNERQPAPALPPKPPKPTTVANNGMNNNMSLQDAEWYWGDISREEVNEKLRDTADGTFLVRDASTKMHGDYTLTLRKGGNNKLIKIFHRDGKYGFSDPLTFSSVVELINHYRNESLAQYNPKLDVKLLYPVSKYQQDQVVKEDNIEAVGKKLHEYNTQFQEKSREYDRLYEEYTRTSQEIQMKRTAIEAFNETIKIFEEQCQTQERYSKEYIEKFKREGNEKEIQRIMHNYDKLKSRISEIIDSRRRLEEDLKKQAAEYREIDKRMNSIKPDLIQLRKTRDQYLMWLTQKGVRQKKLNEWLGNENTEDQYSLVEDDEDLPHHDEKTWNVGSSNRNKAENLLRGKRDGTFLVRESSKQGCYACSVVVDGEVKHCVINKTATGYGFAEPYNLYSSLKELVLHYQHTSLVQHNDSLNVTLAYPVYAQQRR

SMILES: CCC(=O)N1CC[C@H](Nc2ncnc3c2nc(-c2cnn(CC)c2C)n3CC2CC2)C1
IC50 [1]: 1350 nM

SMILES: CCC(=O)N1CC[C@H](Nc2ncnc3c2nc(-c2cnc(C)nc2)n3C)C1
IC50 [1]: 71 nM | IC50 [2]: 4.2 nM | IC50 [3]: 2000 nM

SMILES: CCCn1c(-c2cnn(CC)c2C)nc2c(N[C@H]3CCN(C(=O)CC)C3)ncnc21
IC50 [1]: 198 nM | IC50 [2]: 21 nM | IC50 [3]: 3700 nM

SMILES: CCC(=O)N1CC[C@H](Nc2ncnc3c2nc(-c2cnn(CC)c2C)n3C2CC2)C1
IC50 [1]: 720 nM | IC50 [2]: 39 nM

SMILES: CCC(=O)N1CC[C@H](Nc2ncnc3c2nc(-c2ccc(OC)nc2)n3C)C1
IC50 [1]: 67 nM | IC50 [3]: 1900 nM

SMILES: CCC(=O)N1CC[C@H](Nc2ncnc3c2nc(-c2cnn(CC)c2C)n3CC(F)(F)F)C1
IC50 [1]: 330 nM | IC50 [2]: 5.9 nM | IC50 [3]: 9300 nM

SMILES: CCn1c(-c2ccc(C(F)(F)F)nc2)nc2c(O[C@H]3CCN(C(=O)c4cocn4)C3)ncnc21
IC50 [1]: 300 nM | half-life [4]: 6 h | CL [5]: 19 mL/min/kg | bioavailability [6]: 100% | CL [7]: 13 mL/min/kg | Vd [8]: 1.2 L/kg | logD [9]: 2 | IC50 [10]: 380 nM | Vd [11]: 0.3 L/kg | IC50 [2]: 7.5 nM | IC50 [3]: 4400 nM | Vdu [12]: 3.4 L/kg | Papp [13]: 29 ×10⁻⁶ cm/s | half-life [14]: 2.5 h | clearance [15]: 1.3 mL/min/kg | clearance [16]: 5.6 mL/min/kg | bioavailability [17]: 100% | Vdu [18]: 2.6 L/kg

SMILES: CCC(=O)N1CC[C@H](Nc2ncnc3c2nc(-c2ccn(CC)c2C)n3C)C1
IC50 [1]: 125 nM | IC50 [2]: 26 nM

SMILES: CCC(=O)N1CC[C@H](Nc2ncnc3c2nc(-c2cnc(OC)c(F)c2)n3C)C1
IC50 [1]: 20 nM | IC50 [2]: 2.6 nM | IC50 [3]: 1300 nM

SMILES: CCC(=O)N1CC[C@H](Nc2ncnc3c2nc(-c2cnc(C(C)(C)C)s2)n3C)C1
IC50 [1]: 4 nM | IC50 [2]: 0.7 nM | IC50 [3]: 1600 nM

SMILES: CCC(=O)N1CC[C@H](Nc2ncnc3[nH]c(-c4cnn(CC)c4C)nc23)C1
IC50 [1]: 875 nM | IC50 [2]: 7.6 nM | IC50 [3]: 5400 nM

SMILES: CCn1c(-c2cnc(C)nc2)nc2c(N[C@H]3CCN(C(=O)C4CCOCC4)C3)ncnc21
IC50 [1]: 33 nM | half-life [4]: 1.4 h | CL [7]: 220 mL/min/kg | logD [9]: 0.7 | Vd [11]: 0.7 L/kg | IC50 [2]: 2.1 nM | IC50 [3]: 8900 nM | clearance [15]: 24 mL/min/kg | bioavailability [17]: 18% | Vdu [18]: 4.3 L/kg

SMILES: CCC(=O)N1CC[C@H](Nc2ncnc3c2nc(-c2cnn(CC)c2C)n3CC(F)F)C1
IC50 [1]: 14 nM | IC50 [2]: 1.3 nM | IC50 [3]: 3100 nM

Other lines, results leading:

IC50 [1]: 110 nM | half-life [4]: 2.3 h | CL [5]: 6 mL/min/kg | bioavailability [6]: 100% | CL [7]: 19 mL/min/kg | Vd [8]: 0.9 L/kg | logD [9]: 1.9 | IC50 [10]: 100 nM | Vd [11]: 0.2 L/kg | IC50 [2]: 4.1 nM | IC50 [3]: 3200 nM | Vdu [12]: 1.6 L/kg | Papp [13]: 27 ×10⁻⁶ cm/s | half-life [14]: 3.6 h | clearance [15]: 1.2 mL/min/kg | clearance [16]: 3.4 mL/min/kg | bioavailability [17]: 58% | Vdu [18]: 3.6 L/kg
SMILES: CCn1c(-c2ccc(C(F)(F)F)nc2)nc2c(O[C@H]3CCN(C(=O)C4CCOC4)C3)ncnc21 (stereo partly specified)

IC50 [1]: 2 nM | IC50 [2]: 0.2 nM | IC50 [3]: 2300 nM
SMILES: CCC(=O)N1CC[C@H](Nc2ncnc3c2nc(-c2cnn(CC)c2C)n3CC)C1

IC50 [1]: 94 nM | half-life [4]: 1.7 h | CL [5]: 16 mL/min/kg | bioavailability [6]: 100% | CL [7]: 25 mL/min/kg | Vd [8]: 1.7 L/kg | logD [9]: 0.7 | IC50 [10]: 600 nM | Vd [11]: 0.5 L/kg | IC50 [2]: 6.4 nM | IC50 [3]: > 10000 nM | Vdu [12]: 1.9 L/kg | half-life [14]: 1.8 h | clearance [15]: 3.7 mL/min/kg | clearance [16]: 9.3 mL/min/kg | bioavailability [17]: 50% | Vdu [18]: 3.2 L/kg
SMILES: CCn1c(-c2cnc(C)nc2)nc2c(O[C@H]3CCN(C(=O)c4cocn4)C3)ncnc21

IC50 [1]: 80 nM | half-life [4]: 1.8 h | CL [5]: 7 mL/min/kg | bioavailability [6]: 100% | CL [7]: 44 mL/min/kg | Vd [8]: 0.6 L/kg | logD [9]: 1 | IC50 [10]: 270 nM | Vd [11]: 0.7 L/kg | IC50 [2]: 5.9 nM | IC50 [3]: 5300 nM | Vdu [12]: 0.7 L/kg | Papp [13]: 28 ×10⁻⁶ cm/s | half-life [14]: 1.3 h | clearance [15]: 9.7 mL/min/kg | clearance [16]: 4.9 mL/min/kg | bioavailability [17]: 64% | Vdu [18]: 2.8 L/kg
SMILES: CCn1c(-c2cnc(C)nc2)nc2c(O[C@H]3CCN(C(=O)C4CC4)C3)ncnc21

IC50 [3]: 7300 nM
SMILES: CCC(=O)N1CC[C@H](Nc2ncnc3c2nc(-c2cnn(CC)c2C)n3C)C1

IC50 [1]: 67 nM | half-life [4]: 3.3 h | CL [5]: 18 mL/min/kg | bioavailability [6]: 100% | CL [7]: 130 mL/min/kg | Vd [8]: 1.1 L/kg | logD [9]: 2.2 | IC50 [10]: 73 nM | Vd [11]: 0.4 L/kg | IC50 [2]: 1.6 nM | IC50 [3]: 4100 nM | Vdu [12]: 2.5 L/kg | Papp [13]: 35 ×10⁻⁶ cm/s | half-life [14]: 2.6 h | clearance [15]: 3.6 mL/min/kg | clearance [16]: 6.2 mL/min/kg | bioavailability [17]: 39% | Vdu [18]: 13 L/kg
SMILES: CCn1c(-c2ccc(C(F)(F)F)nc2)nc2c(O[C@H]3CCN(C(=O)[C@H]4C[C@@H](OC)C4)C3)ncnc21

IC50 [1]: 160 nM | IC50 [2]: 5 nM | IC50 [3]: 3800 nM
SMILES: CCC(=O)N1CC[C@H](Nc2ncnc3c2nc(-c2ccc(C)nc2)n3C)C1

IC50 [1]: 455 nM | IC50 [2]: 135 nM
SMILES: CCCn1c(-c2cnc(C)nc2)nc2c(N[C@H]3CCN(C(=O)CC)C3)ncnc21

IC50 [1]: 6 nM | IC50 [3]: 300 nM
SMILES: CCC(=O)N1CC[C@H](Nc2ncnc3c2nc(-c2cnc(OC)c(C)c2)n3C)C1

IC50 [1]: 66 nM | IC50 [2]: 9.9 nM | IC50 [3]: 700 nM
SMILES: CCC(=O)N1CC[C@H](Nc2ncnc3c2nc(-c2ccc(C(F)(F)F)nc2)n3C)C1
